Measurements reported in patent US7910091B2, “System for trapping flying insects with attractant lures” (Woodstream Corporation, priority 2002, dated 2011).

Legend:
mosquitoes [1] = test: Hawaii field test of lactic acid lures in Mosquito Magnet traps, total mosquito catch; type: in vivo, Culex quinquefasciatus Aedes albopictus, et al.; conditions: w/CO2, average caught in 48 hours
Experimental: (§1) […] Sample vials containing lactic acid impregnated frits were replaced every 2 days to ensure measurement uniformity. Measured release rates were approximately 4.0 mg/hr to 20 mg/hr. Controls were run with a Professional trap device lacking a lactic acid lure. The number of mosquitoes retained in the catch bag of the insect trapping devices was quantitated for test sample and control runs.
(§2) The comparison between lactic acid/CO2 and CO2 only used as lures in Mosquito Magnet® Professional (PRO) and Liberty traps are shown in Table 8.

A. albopictus [2] = test: Hawaii field test of lactic acid lures in Mosquito Magnet traps, A. albopictus catch; type: in vivo, Aedes albopictus; conditions: w/CO2, average caught in 48 hours
Experimental: as §1, §2

Culex pipiens pallens = test: China indoor test of Lurex; type: in vivo; conditions: CO2 without Lurex, Hefei basement, July 2002, catching in 24 hours
From the text: (§3) Mosquito types found in China include Culex pipiens pallens (majority), A. albopictus, Anopheles sinensis (minority), and […] subalbatus (minority). […] The daily mosquito catch depended mainly on the seasonal distribution of mosquitoes. […] Mosquito Magnet® Liberty traps were used in this example.

[3] = Laboratory release rate test of lactic acid from impregnated frit cartridges in exhaust nozzle; type: physicochemical
From the text: Packaging of the sample L-(+)-lactic acid solution was selected with the goal of maximizing efficient dispersal of the lactic acid in the CO2 exhaust plume of the insect trapping device. […] Each frit was impregnated with was 3.5 g to 4.5 g of liquid lactic acid. Release rate testing was initially performed under laboratory conditions to assess the dispersal characteristics of L-(+)-lactic acid from impregnated frit cartridges. The sample vial with its cap removed was placed in a “basket-style” housing having numerous apertures/openings to permit release of lactic acid vapors from the impregnated frit. The housing of the supplemental insect attractant element was inserted into the exhaust nozzle of an insect trapping device. Lactic acid release was measured at two temperatures for comparison purposes. Exhaust plume temperature was set at 87° F. and then 97°°F., accordingly. […] At a constant temperature, here 87°°F., the release rate of lactic acid decreased with time. […] The useful life of a frit cartridge impregnated with liquid L-(+)-lactic acid may vary depending upon the amount of attractant initially loaded into the cartridge, and the environmental conditions to which the cartridge is subjected. The ultimate use- or release-time of a given cartridge can be tailored to meet the release rate needs of a particular environmental condition. […] Longer periods of release are anticipated for polymeric formulations of attractant compositions.

flying insects = test: Additional trap trials: lactic acid lures vs 1-octen-3-ol, Liberty trap with and without lure (FIG. 5); type: in vivo; conditions: for Insect capture counts (FIG. 5), in words: compared with CO2 only control / with lactic acid lures
From the text: Also surprising were the results of a trial running a Mosquito Magnet® Liberty trap (American Biophysics Corporation, East Greenwich, R.I., USA) with and without lactic acid lures. […] The addition of a lactic acid lure increased the capture count to about 4,700 flying insects, a surprising enhancement over the effectiveness of the device using CO2 alone. The trial test data are graphically depicted in FIG. 5.

[4] = Acute toxicity LD50 oral rat; type: in vivo
From the text: A particularly beneficial aspect of using biochemical lures to trap mosquitoes is the large margin of safety associated therewith, particularly when compared with traditional chemical attractants.

[5] = @ 25° C.; cited from earlier work
[6] = cited from earlier work
mosquitoes [7] = test: China test, Mosquito Magnet Liberty traps, total catch of mosquitoes; type: in vivo; conditions: Wuhu
From the text: as §3

A. Albopictus [8] = test: China test, Mosquito Magnet Liberty traps, catch of A. albopictus; type: in vivo; conditions: with CO2, Liberty trap, July 2002, Wuhu, catching in 12 hours
From the text: as §3

[9] = cited from earlier work; remark: listed apart in the source
[10] = Liberty trap, February to March 2002
[11] = PRO trap, February to March 2002
[12] = PRO trap, January 2002, higher release rate
[13] = PRO trap, January 2002, listed as Liquid lactic acid

SMILES: CC(O)C(=O)O (stereo not shown) [Solid lactic acid]
- Total catch of mosquitoes (mosquitoes [1]; [10]): 2537
- Total catch of mosquitoes (mosquitoes [1]; [11]): 243
- Total catch of mosquitoes (mosquitoes [1]; PRO trap, January 2002): 136
- Total catch of mosquitoes (mosquitoes [1]; [12]): 384
- Catch of A. Albopictus (A. albopictus [2]; [10]): 12.7
- Catch of A. Albopictus (A. albopictus [2]; [11]): 52
- Catch of A. Albopictus (A. albopictus [2]; PRO trap, January 2002): 30
- Catch of A. Albopictus (A. albopictus [2]; [12]): 116

SMILES: O=C=O [CO2, carbon dioxide]
- Total catch of mosquitoes (Culex pipiens pallens) (Culex pipiens pallens): 605

SMILES: CC(O)C(=O)O (stereo not drawn) [FCC 88, L(+)-lactic acid, 2-hydroxy-propionic acid]
- Release rate ([3]; 87° F., time released 0-48 hrs, impregnated frit): 4.0 to 20 mg/h
- Release rate ([3]; 87° F., time released 3-8 days, impregnated frit): 2.0 to 3.5 mg/h
- Release rate ([3]; 97-100° F., 5-9th day, same sample tested before at 87° F.): 5.0 to 7.1 mg/h
- Estimated time of use of cartridge ([3]; cartridge of 3.5 g liquid L-(+)-lactic acid, average release rate 5 mg/hr to 10 mg/hr): 2 to 4 weeks
- Total catch of mosquitoes (mosquitoes [1]; [13]): 313.5
- Catch of A. Albopictus (A. albopictus [2]; [13]): 26
- Capture count of flying insects (flying insects; Liberty trap with CO2 plus lure, two-day period): about 4,700
- Insect capture counts (FIG. 5), in words (flying insects): substantially improve insect capture counts
- Times less toxic than 1-octen-3-ol [4]: about 11 times
- pH [5]: <2 @ 25 °C
- LD50/dermal/rabbit [6]: 2000 mg/kg

SMILES: C=CC(O)CCCCC (stereo not shown) [1-octen-3-ol, reference compound]
- Total catch of mosquitoes (mosquitoes [1]; [11]): 92
- Catch of A. Albopictus (A. albopictus [2]; [11]): 13
- Insect capture counts (FIG. 5), in words (flying insects): quite inefficient
- Flying insects trapped (flying insects; one trial, over a two-day period, CO2 plume generating devices): less than 100
- Sensitivity of mosquitoes in China to the chemical compared to CO2, in words (mosquitoes [7]; Hefei, Shanghai, Liberty traps): do not seem significantly sensitive
- Total catch of mosquitoes (mosquitoes [7]; with CO2, Liberty trap, July 2002, China, catching in 12 hours): 196
- Catch of A. Albopictus (A. Albopictus [8]): 14
- LD50/oral/rat [9]: 340 mg/kg
